The term logP denotes a log measure of how a compound divides between an organic and an aqueous phase. Low values mean a more hydrophilic compound, high ones a more lipophilic compound.

With `S=C(NC1CCCCC1)N1CCC(c2cnc[nH]2)CC1`, the logP came out at 2.4.

Take `c1ccc2sc(SCCCc3cnc[nH]3)nc2c1`: the logP amounted to 3.24.

With `c1ccc(-c2c[nH]c(CCCc3cnc[nH]3)n2)cc1`, the logP turned out to be 2.5.

`c1ncc(CCCc2nc(C3CCCCC3)c[nH]2)[nH]1`: the logP is 2.94. The value for `c1ccc2sc(NCCCc3cnc[nH]3)nc2c1` was 2.71. On to `Clc1ccc2[nH]c(NCCCc3cnc[nH]3)nc2c1`, for which the logP amounted to 2.49. The value for `O=S(=O)(Cc1ccc(Cl)cc1)NCCCCc1cnc[nH]1` was 2.23. In the case of `c1ccc(-c2cnc(SCCc3cnc[nH]3)[nH]2)cc1`, the logP is 2.45.

As to `c1ccc2sc(SCCc3cnc[nH]3)nc2c1`, the logP worked out at 3.12.

As for `Clc1ccc(Cc2noc(CCc3cnc[nH]3)n2)cc1`, the logP is 2.51.

With `c1ccc2sc(NCCc3c[nH]cn3)nc2c1`, the lipophilicity (logP) came out at 2.36.

For the origin of these results see the SangsterLogP compilation.
